# Results published in patent publication US20110059970A1, “4-PHENYL-1,3-THIAZOLES AND 4-PHENYL-1,3-OXAZOLES DERIVATIVES AS CANNABINOID RECEPTOR LIGANDS” (IPSEN PHARMA S.A.S., priority 2007, published 2011).
# Where a name gives a salt, the structure may show the parent alone.
# System: not given
# Assay: not given
# Conditions: not given
row,melting point,SMILES
1,236 to 238 °C,"CN1CCC(c2nc(-c3cc(C(C)(C)C)c(O)c(C(C)(C)C)c3)cs2)(N(C)C)CC1 (as salt: hydrochloride) [Example 23, 2,6-di-tert-butyl-4-{2-[4-(dimethylamino)-1-methylpiperidin-4-yl]-1,3-thiazol-4-yl}phenol hydrochloride]"
2,228.4 to 229.5 °C,"CN(C)C1(c2nc(-c3ccc(Cc4ccccc4)cc3)cs2)CCOCC1 (as salt: hydrochloride) [Example 29, {4-[4-(4-benzylphenyl)-1,3-thiazol-2-yl]tetrahydro-2H-pyran-4-yl}dimethylamine hydrochloride]"
3,167 to 169 °C,"CN(C)C1(c2nc(-c3ccc(Oc4ccc([N+](=O)[O-])cc4)cc3)cs2)CCOCC1 (as salt: hydrochloride) [Example 32, N,N-dimethyl-4-{4-[4-(4-nitrophenoxy)phenyl]-1,3-thiazol-2-yl}tetrahydro-2H-pyran-4-amine hydrochloride]"
4,215 to 218.8 °C,"CN(C)C1(c2nc(-c3ccc(Sc4ccccc4)cc3)cs2)CCOCC1 (as salt: hydrochloride) [Example 33, N,N-dimethyl-4-{4-[4-(phenylthio)phenyl]-1,3-thiazol-2-yl}tetrahydro-2H-pyran-4-amine hydrochloride]"
5,128.4 to 129.7 °C,"COc1c(C(C)(C)C)cc(-c2csc(C3(N)CCOCC3)n2)cc1C(C)(C)C [Example 1, {4-[4-(3,5-di-tert-butyl-4-methoxyphenyl)-1,3-thiazol-2-yl]tetrahydro-2H-pyran-4-yl}amine]"
6,148.8 to 150.8 °C,"CC(C)(C)c1cc(-c2csc(C3(N)CCSCC3)n2)cc(C(C)(C)C)c1O [Example 5, 4-[2-(4-aminotetrahydro-2H-thiopyran-4-yl)-1,3-thiazol-4-yl]-2,6-di-tert-butylphenol]"
7,114 to 114.4 °C,"CC(C)(C)c1cc(-c2csc(C3(N)CCOCC3)n2)cc(C(C)(C)C)c1 [Example 10, {4-[4-(3,5-di-tert-butylphenyl)-1,3-thiazol-2-yl]tetrahydro-2H-pyran-4-yl}amine]"

# Biological target: T1, human CB2 receptors (Homo sapiens, UniProt P34972)
# T1 construct: expressed in transfected cells; membranes prepared from them
# T1 sequence (P34972 whole entry): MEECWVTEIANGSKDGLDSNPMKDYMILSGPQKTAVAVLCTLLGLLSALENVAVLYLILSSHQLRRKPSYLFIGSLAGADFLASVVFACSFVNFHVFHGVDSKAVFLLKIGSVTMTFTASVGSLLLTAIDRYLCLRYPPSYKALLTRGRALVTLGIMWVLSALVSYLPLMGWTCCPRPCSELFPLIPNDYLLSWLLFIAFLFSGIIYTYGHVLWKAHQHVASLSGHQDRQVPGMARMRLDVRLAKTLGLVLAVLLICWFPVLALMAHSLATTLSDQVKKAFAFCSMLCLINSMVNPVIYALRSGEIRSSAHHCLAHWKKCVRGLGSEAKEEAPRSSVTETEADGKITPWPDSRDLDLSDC
# Assay: Affinity for human CB2 receptors: inhibition of [3H]-CP55940 binding to membranes of transfected CHO-K1 cells
# Conditions: [3H]-CP55940 (1 nM) competition, CHO-K1 membranes; IC50 converted to Ki by Cheng-Prusoff; read-out: affinity for the CB2 receptor
# Experimental: Study of the Affinity of the Compounds for Human Cannabinoid CB2 Receptors
# The affinity of the compounds of the invention for human CB2 receptors was determined by measuring inhibition of [^3H]-CP55940 binding to membrane preparations produced from transfected CHO-K1 cells.
# CHO-K1 cells stably expressing human CB2 receptors were cultured in RPMI 1640 medium supplemented with 10% foetal calf serum, 2 mM glutamine, 100 U/ml penicillin, 0.1 mg/ml streptomycin and 0.5 mg/ml G418. The cells were collected using 0.5 mM EDTA and centrifuged at 500 g for 5 min at 4° C. The cell pellet was resuspended in phosphate buffered saline (PBS) and centrifuged at 500 g for 5 min at 4° C. The pellet was resuspended in 50 mM tris buffer pH 7.4 and centrifuged at 500 g for 5 min at 4° C. The cells were lysed by sonication and centrifuged at 39,000 g for 10 min at 4° C. The pellet was resuspended in 50 mM tris buffer pH 7.4 and centrifuged at 50,000 g for 10 min at 4° C. The membranes obtained in this final pellet were stored at −80° C.
# Competitive inhibition of the binding of [^3H]-CP55940 to CB2 receptors was determined in duplicate in 96-well polypropylene plates. Cell membranes (10 μg of protein/well) were incubated with [^3H]-CP55940 (1 nM) for 60 min at 25° C. in 50 mM Tris-HCl buffer, pH 7.4, containing 0.1% bovine serum albumin (BSA), 5 mM MgCl2, and 50 μg/ml of bacitracin.
# Bound [^3H]-CP55940 was separated from free [^3H]-CP55940 by filtration through GF/C fibre glass filter plates (Unifilter, Packard) pre-impregnated with 0.1% polyethylenimine (P.E.I.), using a Filtermate 196 (Packard). The filters were washed with 50 mM Tris-HCl buffer, pH 7.4 at 0-4° C. and the radioactivity present was determined using a counter (Packard Top Count).
# Specific binding was obtained by subtracting non-specific binding (determined in the presence of 0.1 μM WIN55212-2) from total binding. The data were analysed by computer-assisted nonlinear regression (MDL). For each test, the IC50 value was converted to a Ki value (inhibition constant) using the Cheng-Prusoff equation.
# where [L] is the concentration of the radioligand used in the assay and Kd is the dissociation constant of the radioligand at equilibrium.
row,Ki,SMILES
1,500 to 1000 nM,"CC(C)(C)c1cc(-c2csc(C3(N)CCSCC3)n2)cc(C(C)(C)C)c1O [Example 5, 4-[2-(4-aminotetrahydro-2H-thiopyran-4-yl)-1,3-thiazol-4-yl]-2,6-di-tert-butylphenol]"
